Source: US9101567B2, “Suppression of cancer growth and metastasis using nordihydroguaiaretic acid derivatives with 7-hydroxystaurosporine” (The Johns Hopkins University, priority 2010, dated 2015)

Legend:
[1] = system: mitochondrial membrane potential (ΔΨm); assay: Measurement of mitochondrial membrane potential with JC-1 dye in LNCaP cells; type: cell-based, human
Experimental: The cells were cultured in 6 well microwell dishes and treated with the culture medium containing JC-1 dye (Cayman Chemical, Ann Arbor, Mich.) for 30 min, according to the company's protocol. After the cells had been washed carefully, they were treated with M4N for 5 hrs. The cells were observed through B29/Zeiss LSM 510 μMETA laser confocal microscope (Carl Zeiss, Germany). The cell images were captured by two different excitation lights (with 488 nm argon-ion and 568 nm argon-krypton lasers). Both JC-1 monomer and J-aggregates are detected by 488 nm excitation light while only J-aggregates are detected by 568 nm excitation light. The ratio of the intensity of the emission light excited by 568 nm light to that of the emission light excited by 488 nm light at every pixel of images (The ratio should indicate the mitochondrial potential) was calculated by the imaging software (Carl Zeiss, Germany). In the figure the ratio was shown by pseudo color. Red color indicates high ratio (high potential) while dark blue indicates low ratio (low potential). Yellow through green to light blue represents medium ratio (medium potential).
Since BNIP3 functions to activate mitochondria-related cell death machinery and induce mitochondrial membrane depolarization, the effect of M4N on the mitochondrial membrane potential (ΔΨm) was examined (FIG. 3C). […]

[2] = system: LC3B; assay: Immunocytochemistry of LC3B (autophagosomes) in LNCaP cells; type: cell-based, human; conditions: 6 hrs, Baflomycin A1 (100 nM), control cells and cells under combination treatments, M4N 80 μM
Source text: […] After permeabilized by 0.2% Tryton X-100 and 1% goat serum diluted in PBS (−), the cells were blocked by PBS (−) containing 5% goat serum.

[3] = system: BNIP3 mRNA; assay: Northern blotting of BNIP3 mRNA in LNCaP cells; type: cell-based, human; conditions: 6 hr exposure to hypoxic condition, M4N 80 μM
Experimental: RNA was extracted from the cells by a Trizol Reagent (Invitrogen, Carlsbad, Calif.). Twentyfive μg of RNA per lane was dissolved on the 1.5% agarose gel containing 20 mM NaPO4 (pH 6.8) and 6% formaldehyde. RNA was transferred to a Nytran SPC membrane (Sigma-Aldrich, St. Louis, Mo.). The probe for BNIP3 was derived from a 199 bp fragment DNA generated by RT-PCR using a SuperScript III First-Strand Synthesis System for RT-PCR (Invitrogen, Carlsbad, Calif.), 5′-primer ‘[…]’ and 3′-primer ‘[…]’. The PCR fragment was cloned into a topo vector (Invitrogen, Carlsbad, Calif.). After midi-prep, the DNA fragment was excised from the vector and dissolved on the 2% agarose gel and purified. The extracted DNA fragment was labeled by ^32P-αdATP, Klenow fragment, and random hexagonal primers. After unincorporated ^32P-αdATP was removed by a Sephadex G-50 spun column, the labeled DNA fragment was used as a probe. After hybridization, the membrane was washed and autoradiographed to a BioMax MR film (Kodak, Rochester, N.Y.).
BNIP3 is a member of Bcl-2 family proteins which sends pro-apoptotic signal to mitochondria and induces mitochondrial membrane potential depolarization. […] This implies that BNIP3 is involved in autophagy as well as cell death. […]

[4] = system: LC3B-II; assay: Western blotting of LC3B-II (autophagy) in MCF-7 cells; type: cell-based, human; conditions: MCF-7, 15 hrs; M4N 80 μM
Experimental: (§1) The sample volumes were adjusted by the total protein amount. Protein assay was performed by Bio-Rad Protein Assay (Bio-Rad Laboratories, Inc. Hercules, Calif.). The samples were resolved by the standard SDS-polyacrylamide gel electrophoresis and transferred to nitrocellulose membrane (Amersham Biosciences, Bjorkgatan, Sweden). The membranes were blocked with skim milk, and incubated with primary antibodies at 4° C. overnight and then with secondary antibody conjugated with horse radish peroxidase at room temperature for 2 hrs. The signals were detected by western blot chemiluminescence reagent plus (New England Nuclear Life Science Products, Boston, Mass.). The effect of […] on autophagy was examined using the western blotting for LC3B-II in the presence of Baflomycin A1 in MCF-7 and HepG2 cells (FIG. 4D).

[5] = system: LC3B-II; assay: Western blotting of LC3B-II (autophagy) in HepG2 cells; type: cell-based, human; conditions: HepG2, 15 hrs; M4N 80 μM
Experimental: as §1

[6] = system: LC3B-II; assay: Western blotting of LC3B-I&II (autophagy) in LNCaP cells; type: cell-based, human; conditions: 18 hrs, in the presence of Baflomycin A1 (100 nM), M4N 80 μM
Experimental: The sample volumes were adjusted by the total protein amount. Protein assay was performed by Bio-Rad Protein Assay (Bio-Rad Laboratories, Inc. Hercules, Calif.). The samples were resolved by the standard SDS-polyacrylamide gel electrophoresis and transferred to nitrocellulose membrane (Amersham Biosciences, Bjorkgatan, Sweden). The membranes were blocked with skim milk, and incubated with primary antibodies at 4° C. overnight and then with secondary antibody conjugated with horse radish peroxidase at room temperature for 2 hrs. The signals were detected by western blot chemiluminescence reagent plus (New England Nuclear Life Science Products, Boston, Mass.).

[7] = system: LNCaP tumors; assay: Nude mice orthotopically implanted with LNCaP tumors: life-span and lung metastasis; type: in vivo, nude (nu/nu) mice; conditions: LNCaP tumor-bearing nude mice; lung sections, hematoxylin and eosin
Experimental: T-cell deficient male nude mice (nu/nu) were obtained from Charles River Laboratories (Wilmington, Mass.). […] For drug combinations (M4N/etoposide, M4N/rapamycin, and M4N/UCN-01), etoposide, rapamycin, or UCN-01 powder was further added to M4N in CPE 25/30 to make a final concentration of M4N (10 mg/ml) respectively with etoposide (4 mg/ml), rapamycin (3.75 mg/ml), or UCN-01 (884 g/ml) in CPE 25/30 formulation. These drugs were intravenously injected into the tail vein of mice at the daily dose of 0.1 ml per mouse. Therefore dosages of each injection were 1 mg/shot (for M4N), 0.4 mg/shot (for etoposide), 0.375 mg/shot (for rapamycin), and 88.4 μg/shot (for UCN-01). The drug injections were performed once every day; beginning at day 3 until day 31 after tumor inoculation for the combination treatment with either etoposide or rapamycin and until day 25 after tumor inoculation for the combination treatment with UCN-01. After this the drugs were injected once a week for etoposide/rapamycin combination treatment and once every three days until day 35 for UCN-01 combination treatment.
LNCaP cells growing subconfluently were collected into the tissue culture medium without fetal bovine serum and antibiotics. The cell concentration was adjusted by the same medium. […]

COc1ccc(C[C@@H](C)[C@@H](C)Cc2ccc(OC)c(OC)c2)cc1OC [M4N, Tetra-O-methyl nordihyroguaiaretic acid]
mitochondrial membrane potential (ΔΨm) ([1]; 5 hrs, M4N 80 μM, JC-1 dye): hyperpolarized
depolarization of mitochondrial membrane potential induced by rottlerin or Ly294002 ([1]; concomitant treatment with M4N): reversed to the normal potential to some extent
net amount of autophagosomes (LC3B staining) [2]: reduced the net amount of autophagosomes
BNIP3 mRNA expression [3]: suppressed the increase of BNIP3 mRNA expression
autophagy (LC3B-II in the presence of Baflomycin A1) [4]: blocks autophagy
autophagy (LC3B-II in the presence of Baflomycin A1) [5]: blocks autophagy
net LC3B-II formation (net autophagic activity) [6]: almost totally suppressed
mice with obvious lung metastasis (histology) [7]: 2 out of 4
